Results reported in PMC7828211, “LysM Receptor-Like Kinase LYK9 of Pisum Sativum L. May Regulate Plant Responses to Chitooligosaccharides Differing in Structure” (International Journal of Molecular Sciences, 2021).
Where two headings read alike, the source gives them in different places.

How the values were obtained:
[1] = target: T1, PsLYK9-ECD (Lathyrus oleraceus, UniProt A0A9D5AD18); test: microscale thermophoresis; format: binding; conditions: 50 mM Tris pH 7.4, 10 mM MgCl2, 150 mM NaCl, 0.05% Tween 20, 25 °C; 20 nM RED-tris-NTA labelled protein; read-out: Kd, μM (±SD)
T1 construct: gene KIW84_053210; corresponds to residues 31-235), GP67 signal in vector, 6xHis tag, Sf9 cells, predicted 23 kDa, about 35 kDa on blot; RED-tris-NTA labelled
T1 sequence (A0A9D5AD18 26-230): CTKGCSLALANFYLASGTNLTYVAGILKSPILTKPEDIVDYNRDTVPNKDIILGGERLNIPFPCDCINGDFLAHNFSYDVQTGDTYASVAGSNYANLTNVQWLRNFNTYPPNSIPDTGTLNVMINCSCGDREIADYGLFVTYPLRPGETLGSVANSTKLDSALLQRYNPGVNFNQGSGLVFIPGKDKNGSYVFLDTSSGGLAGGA
Description: microscale thermophoresis on PsLYK9-ECD

[2] = target: T2, PsLYR4-ECD; test: microscale thermophoresis; format: binding, Pisum sativum; conditions: 50 mM Tris pH 7.4, 10 mM MgCl2, 150 mM NaCl, 0.05% Tween 20, 25 °C, 20 nM RED-tris-NTA labelled protein
T2 construct: gene LYR4; corresponds to residues 8-257), GP67 signal in vector, 6xHis tag, Sf9 cells, predicted 27 kDa, about 32 kDa on blot; RED-tris-NTA labelled
Description: microscale thermophoresis on PsLYR4-ECD

Compound | Kd [1] [µM] | Kd ([2]; read-out: Kd, μM (±SD)) [µM] | Kd ([2]; read-out: Kd) [µM]
CC(=O)N[C@H]1[C@H](O[C@H]2[C@H](O)[C@@H](NC(C)=O)C(O)O[C@@H]2CO)O[C@H](CO)[C@@H](O[C@@H]2O[C@H](CO)[C@@H](O[C@@H]3O[C@H](CO)[C@@H](O)[C@H](O)[C@H]3NC(C)=O)[C@H](O)[C@H]2NC(C)=O)[C@@H]1O (stereo partly shown) [CO4] | 2.1 ± 0.6 |  | 
N[C@H]1[C@H](O[C@H]2[C@H](O)[C@@H](N)[C@H](O[C@H]3[C@H](O)[C@@H](N)[C@H](O[C@H]4[C@H](O)[C@@H](N)[C@H](O[C@H]5[C@H](O)[C@@H](N)C(O)O[C@@H]5CO)O[C@@H]4CO)O[C@@H]3CO)O[C@@H]2CO)O[C@H](CO)[C@@H](O)[C@@H]1O (stereo partly shown) [CO5-DA] | 76 ± 25 | 45 ± 20 | 
CC(=O)N[C@H]1[C@H](O[C@H]2[C@H](O)[C@@H](NC(C)=O)[C@H](O[C@H]3[C@H](O)[C@@H](NC(C)=O)C(O)O[C@@H]3CO)O[C@@H]2CO)O[C@H](CO)[C@@H](O[C@@H]2O[C@H](CO)[C@@H](O[C@@H]3O[C@H](CO)[C@@H](O)[C@H](O)[C@H]3NC(C)=O)[C@H](O)[C@H]2NC(C)=O)[C@@H]1O (stereo partly shown) [CO5] | 5 ± 1.9 |  | 
N[C@H]1[C@H](O[C@H]2[C@H](O)[C@@H](N)[C@H](O[C@H]3[C@H](O)[C@@H](N)[C@H](O[C@H]4[C@H](O)[C@@H](N)[C@H](O[C@H]5[C@H](O)[C@@H](N)[C@H](O[C@H]6[C@H](O)[C@@H](N)C(O)O[C@@H]6CO)O[C@@H]5CO)O[C@@H]4CO)O[C@@H]3CO)O[C@@H]2CO)O[C@H](CO)[C@@H](O)[C@@H]1O (stereo partly shown) [CO6-DA] | 42 ± 23 | 22 ± 11 | 
N[C@H]1[C@H](O[C@H]2[C@H](O)[C@@H](N)[C@H](O[C@H]3[C@H](O)[C@@H](N)[C@H](O[C@H]4[C@H](O)[C@@H](N)[C@H](O[C@H]5[C@H](O)[C@@H](N)[C@H](O[C@H]6[C@H](O)[C@@H](N)[C@H](O[C@H]7[C@H](O)[C@@H](N)C(O)O[C@@H]7CO)O[C@@H]6CO)O[C@@H]5CO)O[C@@H]4CO)O[C@@H]3CO)O[C@@H]2CO)O[C@H](CO)[C@@H](O)[C@@H]1O (stereo partly shown) [CO7-DA] | 31 ± 11 | 19 ± 13 | 
CO8-DA | 26 ± 15 |  | 8 ± 5
